According to patent publication US4049696A, “3-((4-(2,2-Dichloro-1,1-difluoroethoxy)phenyl)sulfonyl)-2-propenenitrile” (The Dow Chemical Company, priority 1977, dated 1977):
Converted amounts (≈) assume the structure as drawn.

How the values were obtained:
Format in all cases: cell-based
E. coli ATCC 11229 = experiment: in vitro agar Petri dish dilution test, E. coli ATCC 11229; settings: Escherichia coli, ATCC11229, 100% growth inhibition
Excerpt: (§1) The compound has antimicrobial utility.

B. subtilis = experiment: in vitro agar Petri dish dilution test, B. subtilis; settings: Bacillus subtilis, 100% growth inhibition
Excerpt: as §1

A. fumigatus = experiment: in vitro agar Petri dish dilution test, A. fumigatus; settings: Aspergillus fumigatus, 100% growth inhibition
Excerpt: as §1

S. aureus = experiment: in vitro agar Petri dish dilution test, S. aureus; settings: Staphylococcus aureus, 100% growth inhibition
Excerpt: as §1

[1] = tested on: Trichoderm Sp. Madison P-42; experiment: in vitro agar Petri dish dilution test, Trichoderm Sp. Madison P-42; settings: 100% growth inhibition
Excerpt: as §1

C. albicans = experiment: in vitro agar Petri dish dilution test, C. albicans; settings: Candida albicans, 100% growth inhibition
Excerpt: as §1

P. aeruginosa = experiment: in vitro agar Petri dish dilution test, P. aeruginosa; settings: Pseudomonas aeruginosa, 100% growth inhibition
Excerpt: as §1

C. albicans NIH = experiment: in vitro agar Petri dish dilution test, C. albicans NIH; settings: Candida albicans, 100% growth inhibition
Excerpt: as §1

T. mentagrophytes = experiment: in vitro agar Petri dish dilution test, T. mentagrophytes; settings: Trichophyton mentagrophytes, 100% growth inhibition
Excerpt: as §1

P. chrysogenum = experiment: in vitro agar Petri dish dilution test, P. chrysogenum; settings: Penicillium chrysogenum, 100% growth inhibition
Excerpt: as §1

C. pelliculosa = experiment: in vitro agar Petri dish dilution test, C. pelliculosa; settings: Hansenula anomala, 100% growth inhibition
Excerpt: as §1

Torulopsis Species = experiment: in vitro agar Petri dish dilution test, Torulopsis Species; settings: 100% growth inhibition
Excerpt: as §1

A. niger = experiment: in vitro agar Petri dish dilution test, A. niger; settings: Aspergillus niger, 100% growth inhibition
Excerpt: as §1

P. pullulans = experiment: in vitro agar Petri dish dilution test, P. pullulans; settings: 100% growth inhibition
Excerpt: as §1

[2] = tested on: K. pneumoniae M-1 Midland Hospital; experiment: in vitro agar Petri dish dilution test, K. pneumoniae M-1 Midland Hospital; settings: Klebsiella pneumoniae, 100% growth inhibition
Excerpt: as §1

S. marcescens NIH = experiment: in vitro agar Petri dish dilution test, S. marcescens NIH; settings: Serratia marcescens, 100% growth inhibition
Excerpt: as §1

Question: For `N#CC=CS(=O)(=O)c1ccc(OC(F)(F)C(Cl)Cl)cc1` [3-((4-(2,2-Dichloro-1,1-difluoroethoxy)phenyl)sulfonyl)-2-propenenitrile], which MIC (E. coli ATCC 11229) is on record?
Answer: 50 µg/mL (≈ 146 µM)

Question: And the MIC (B. subtilis)?
Answer: 1 µg/mL (≈ 2.92 µM)

Question: And the MIC (A. fumigatus)?
Answer: 50 µg/mL (≈ 146 µM)

Question: What about the MIC (S. aureus) of the same compound?
Answer: 5 µg/mL (≈ 14.6 µM)

Question: And the MIC [1]?
Answer: 100 µg/mL (≈ 292 µM)

Question: What about the MIC (C. albicans) of the same compound?
Answer: 50 µg/mL (≈ 146 µM)

Question: What about the MIC (P. aeruginosa) of the same compound?
Answer: 100 µg/mL (≈ 292 µM)

Question: And the MIC (C. albicans NIH)?
Answer: 50 µg/mL (≈ 146 µM)

Question: What about the MIC (T. mentagrophytes) of the same compound?
Answer: 10 µg/mL (≈ 29.2 µM)

Question: And the MIC (P. chrysogenum)?
Answer: 10 µg/mL (≈ 29.2 µM)

Question: And the MIC (C. pelliculosa)?
Answer: 10 µg/mL (≈ 29.2 µM)

Question: And the MIC (Torulopsis Species)?
Answer: 50 µg/mL (≈ 146 µM)

Question: And the MIC (A. niger)?
Answer: 10 µg/mL (≈ 29.2 µM)

Question: What about the MIC (P. pullulans) of the same compound?
Answer: 50 µg/mL (≈ 146 µM)

Question: And the MIC [2]?
Answer: 100 µg/mL (≈ 292 µM)

Question: And the MIC (S. marcescens NIH)?
Answer: 50 µg/mL (≈ 146 µM)
